Among the data in US20070249590A1, “Substituted indolo[2,3-a]pyrrolo[3,4-c]carbazole compounds useful in treating kinase disorders” (priority 2005, published 2007) are IC50 values, retold here.

As usually defined, the IC50 is the midpoint of a concentration-inhibition curve.

This test concerns the target T1, JAK3 (JH1 and JH2 domain) (Homo sapiens, UniProt P52333).
T1 sequence (P52333 521-1111 limits assumed): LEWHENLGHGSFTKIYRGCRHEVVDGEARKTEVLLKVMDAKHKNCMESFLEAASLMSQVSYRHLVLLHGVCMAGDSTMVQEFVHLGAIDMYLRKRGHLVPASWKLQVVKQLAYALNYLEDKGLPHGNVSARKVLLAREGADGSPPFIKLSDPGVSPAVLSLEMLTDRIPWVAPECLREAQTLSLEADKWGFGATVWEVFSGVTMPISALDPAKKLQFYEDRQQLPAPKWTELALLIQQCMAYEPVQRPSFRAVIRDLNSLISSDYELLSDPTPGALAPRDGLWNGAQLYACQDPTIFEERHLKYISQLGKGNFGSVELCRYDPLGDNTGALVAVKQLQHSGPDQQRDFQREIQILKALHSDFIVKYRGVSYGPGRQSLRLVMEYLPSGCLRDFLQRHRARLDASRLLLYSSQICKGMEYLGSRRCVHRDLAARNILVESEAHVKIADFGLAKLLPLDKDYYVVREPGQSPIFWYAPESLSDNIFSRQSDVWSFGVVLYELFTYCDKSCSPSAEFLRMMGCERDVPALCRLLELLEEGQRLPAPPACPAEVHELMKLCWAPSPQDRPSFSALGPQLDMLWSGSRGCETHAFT
Put plainly: JAK3 Kinase Assay (ELISA of peptide substrate phosphorylation). Type of test: biochemical. The settings on record: purified JAK3 enzyme, 10 μM ATP, biotinylated peptide substrate, 1 hour at room temperature. The method in brief: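 Sf21-baculovirus-expressed JAK3 (JH1+JH2), glutathione-bead purified, with biotinylated peptide substrate (in buffer containing 10 μM ATP) in HEPES pH 7.5/MgCl2/DTT, 1 h RT. Product was captured on Neutravidin, detected with HRP anti-phosphotyrosine (PY99)/TMB, OD 450/650 nm. Triplicate 16-point half-log series from 200 μM gave IC50; otherwise % inhibition at 1 μM.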
Consider `O=C1NC(=O)c2c1c1c3ccccc3n3c1c1c2c2ccccc2n1CC(OC(=O)N1CCOCC1)CC3` (stereo not shown) [Cpd 71, 12,13-[2-(morpholin-4-yl-carbonyloxy)-butan-1,4-yl]-12,13-dihydro-5,7-dioxo-6H-indolo[2,3-a]pyrrolo[3,4-c]carbazole], for which the concentration for half-maximal inhibition (IC50) was found to be 38 nM.

For the compound `O=C1NC(=O)c2c1c1c3ccccc3n3c1c1c2c2ccccc2n1CC(OC(=O)N1CCN(c2ccc(O)cc2)CC1)CC3` (stereo not shown) [Cpd 58, 12,13-(2-{[4-(4-hydroxy-phenyl)piperazin-1-yl]carbonyloxy}-butan-1,4-yl)-12,13-dihydro-5,7-dioxo-6H-indolo[2,3-a]pyrrolo[3,4-c]carbazole], the IC50 was 98 nM. Take `CN1CCN(CCCNC(=O)OC2Cn3c4ccccc4c4c5c(c6c7ccccc7n(c6c43)CC2O)C(=O)NC5=O)CC1` (stereo not shown) [Cpd 90, 12,13-(2-{[3-(4-methyl-piperazin-1-yl)prop-1-yl]carbamoyloxy}-3-hydroxy-butan-1,4-yl)-12,13-dihydro-5,7-dioxo-6H-indolo[2,3-a]pyrrolo[3,4-c]carbazole]: the IC50 worked out at 144 nM. For `O=C1NC(=O)c2c1c1c3cc(Br)ccc3n3c1c1c2c2ccccc2n1CC(O)CC3` (stereo not shown) [Cpd 31, 3-bromo-12,13-(2-hydroxy-butan-1,4-yl)-12,13-dihydro-5,7-dioxo-6H-indolo[2,3-a]pyrrolo[3,4-c]carbazole], the half-inhibitory concentration (IC50) amounted to 8 nM. As for `O=C1NCc2c1c1c3ccccc3n3c1c1c2c2ccccc2n1CC(=C(CO)CO)C3` [Cpd 24, 12,13-(2-{[1,1-bis-(dihydroxymethyl)]methylidene}-propan-1,3-yl)-6,7,12,13-tetrahydro-5-oxo-5H-indolo[2,3-a]pyrrolo[3,4-c]carbazole], the figure is 37 nM; as for `NS(=O)(=O)c1ccc(CCNC(=O)OC2Cn3c4ccccc4c4c5c(c6c7ccccc7n(c6c43)CC2O)C(=O)NC5=O)cc1` (stereo not shown) [Cpd 105, 12,13-(2-{[2-(4-sulfonylamino-phenyl)ethyl]carbamoyloxy}-3-hydroxy-butan-1,4-yl)-12,13-dihydro-5,7-dioxo-6H-indolo[2,3-a]pyrrolo[3,4-c]carbazole], 15 nM.

Consider `CN(C)CCNC(=O)OC1CCn2c3ccccc3c3c4c(c5c6ccccc6n(c5c32)C1)C(=O)NC4=O` (stereo not shown) [Cpd 50, 12,13-{2-[(2-dimethylamino-ethyl)carbamoyloxy]-butan-1,4-yl}-12,13-dihydro-5,7-dioxo-6H-indolo[2,3-a]pyrrolo[3,4-c]carbazole], for which the 50% inhibitory concentration (IC50) came out at 31 nM. As for `CC(C)NC(=O)C1(O)Cn2c3ccccc3c3c4c(c5c6ccccc6n(c5c32)CC1O)C(=O)NC4=O` (stereo not shown) [Cpd 123, 12,13-[2-(isopropyl-carbamoyl)-2,3-dihydroxy-butan-1,4-yl]-12,13-dihydro-5,7-dioxo-6H-indolo[2,3-a]pyrrolo[3,4-c]carbazole], the figure is 80 nM; as for `CN1CCC(N(C)Cc2ccc3c(c2)c2c4c(c5c6ccccc6n6c5c2n3CC(O)C(O)C6)CNC4=O)CC1` (stereo not shown) [Cpd 196, 3-{[N-methyl-N-(1-methyl-piperidin-4-yl)]aminomethyl}-12,13-(2,3-dihydroxy-butan-1,4-yl)-6,7,12,13-tetrahydro-5-oxo-5H-indolo[2,3-a]pyrrolo[3,4-c]carbazole], approximately 1000 nM. As for `O=C1NCc2c1c1c3cc(CO)ccc3n3c1c1c2c2cc(CO)ccc2n1CC(CO)C3` (stereo not shown) [Cpd 215, 3,9-bis-(hydroxymethyl)-12,13-(2-hydroxymethyl-propan-1,3-yl)-6,7,12,13-tetrahydro-5-oxo-5H-indolo[2,3-a]pyrrolo[3,4-c]carbazole], the figure is 8 nM; as for `O=C(NCCCN1CCCC1=O)OCC1Cn2c3ccccc3c3c4c(c5c6ccccc6n(c5c32)C1)C(=O)NC4` (stereo not shown) [Cpd 157, 12,13-(2-{[3-(2-oxo-pyrrolidin-1-yl)prop-1-yl]carbamoyloxymethyl}-propan-1,3-yl)-6,7,12,13-tetrahydro-5-oxo-5H-indolo[2,3-a]pyrrolo[3,4-c]carbazole], more than 200 nM; as for `CN(C)CCCN(CCCN(C)C)C(=O)OC1Cn2c3ccccc3c3c4c(c5c6ccccc6n(c5c32)CC1O)C(=O)NC4=O` (stereo not shown) [Cpd 109, 12,13-(2-{[N,N-bis-(3-dimethylamino-prop-1-yl)]carbamoyloxy}-3-hydroxy-butan-1,4-yl)-12,13-dihydro-5,7-dioxo-6H-indolo[2,3-a]pyrrolo[3,4-c]carbazole], more than 200 nM.

Take `O=C1NCc2c1c1c3cc(/C=C/c4ccccn4)ccc3n3c1c1c2c2ccccc2n1CC(CO)C3` (stereo not shown) [Cpd 216, 3-[(2E)-2-pyridin-2-yl-ethenyl]-12,13-(2-hydroxymethyl-propan-1,3-yl)-6,7,12,13-tetrahydro-5-oxo-5H-indolo[2,3-a]pyrrolo[3,4-c]carbazole]: the IC50 turned out to be 310 nM.

`O=C(NCCCn1ccnc1)OC1Cn2c3ccccc3c3c4c(c5c6ccccc6n(c5c32)CC1O)C(=O)NC4=O` (stereo not shown) [Cpd 91, 12,13-{2-[(3-imidazol-1-yl-prop-1-yl)carbamoyloxy]-3-hydroxy-butan-1,4-yl}-12,13-dihydro-5,7-dioxo-6H-indolo[2,3-a]pyrrolo[3,4-c]carbazole]: the IC50 turned out to be 44 nM.

For `CC(C)(C)NC(=O)OC1CCn2c3ccccc3c3c4c(c5c6ccccc6n(c5c32)C1)C(=O)NC4=O` (stereo not shown) [Cpd 40, 12,13-[2-(t-butylcarbamoyloxy)-butan-1,4-yl]-12,13-dihydro-5,7-dioxo-6H-indolo[2,3-a]pyrrolo[3,4-c]carbazole], the half-inhibitory concentration (IC50) was more than 400 nM. For the compound `CN(C)CCCNC(=O)OC1CCn2c3ccccc3c3c4c(c5c6ccccc6n(c5c32)CC1)C(=O)NC4` (stereo not shown) [Cpd 186, 12,13-{3-[(3-dimethylamino-prop-1-yl)carbamoyloxy]-pentan-1,5-yl}-6,7,12,13-tetrahydro-5-oxo-5H-indolo[2,3-a]pyrrolo[3,4-c]carbazole], the IC50 was 178 nM. For the compound `CN1CCN(CCCNC(=O)OC2CCCn3c4ccccc4c4c5c(c6c7ccccc7n(c6c43)C2)C(=O)NC5=O)CC1` (stereo not shown) [Cpd 116, 12,13-(2-{[3-(4-methyl-piperazin-1-yl)prop-1-yl]carbamoyloxy}-pentan-1,5-yl)-12,13-dihydro-5,7-dioxo-6H-indolo[2,3-a]pyrrolo[3,4-c]carbazole], the IC50 is more than 200 nM. As for `O=C1NC(=O)c2c1c1c3ccccc3n3c1c1c2c2ccccc2n1CC(O)(C(=O)N1CCN(c2ccccn2)CC1)C(O)C3` (stereo not shown) [Cpd 131, 12,13-{2-[(4-pyridin-2-yl-piperazin-1-yl)carbonyl]-2,3-dihydroxy-butan-1,4-yl}-12,13-dihydro-5,7-dioxo-6H-indolo[2,3-a]pyrrolo[3,4-c]carbazole], the figure is 78 nM; as for `CC(C)(C)OC(=O)CNC(=O)OC1CCn2c3ccccc3c3c4c(c5c6ccccc6n(c5c32)C1)C(=O)NC4=O` (stereo not shown) [Cpd 37, 12,13-{2-[(t-butoxycarbonylmethyl)carbamoyloxy]-butan-1,4-yl}-12,13-dihydro-5,7-dioxo-6H-indolo[2,3-a]pyrrolo[3,4-c]carbazole], 4 nM. `NC1CCN(C(=O)OCC2(O)Cn3c4ccccc4c4c5c(c6c7ccccc7n(c6c43)C2)C(=O)NC5)CC1` (stereo not shown) [Cpd 176, 12,13-{2-hydroxy-2-[(4-amino-piperidin-1-yl)carbonyloxymethyl]-propan-1,3-yl}-6,7,12,13-tetrahydro-5-oxo-5H-indolo[2,3-a]pyrrolo[3,4-c]carbazole]: the IC50 was 177 nM. As for `CC1(O)Cn2c3ccccc3c3c4c(c5c6ccccc6n(c5c32)CC1(C)O)C(=O)NC4` (stereo not shown) [Cpd 20, 12,13-(2,3-dimethyl-2,3-dihydroxy-butan-1,4-yl)-6,7,12,13-tetrahydro-5-oxo-5H-indolo[2,3-a]pyrrolo[3,4-c]carbazole], the figure is 12 nM; as for `O=C1NC(=O)c2c1c1c3ccccc3n3c1c1c2c2ccccc2n1CC(OC(=O)N1CCN(CCN2CCCC2=O)CC1)CC3` (stereo not shown) [Cpd 57, 12,13-[2-({4-[2-(2-oxo-pyrrolidin-1-yl)ethyl]piperazin-1-yl}carbonyloxy)-butan-1,4-yl]-12,13-dihydro-5,7-dioxo-6H-indolo[2,3-a]pyrrolo[3,4-c]carbazole], 41 nM; as for `COc1ccc(CCNC(=O)OC2Cn3c4ccccc4c4c5c(c6c7ccccc7n(c6c43)CC2O)C(=O)NC5=O)cc1OC` (stereo not shown) [Cpd 84, 12,13-(2-{[2-(3,4-dimethoxy-phenyl)ethyl]carbamoyloxy}-3-hydroxy-butan-1,4-yl)-12,13-dihydro-5,7-dioxo-6H-indolo[2,3-a]pyrrolo[3,4-c]carbazole], 187 nM. As for `O=C(NCCCN1CCOCC1)OCC1Cn2c3ccccc3c3c4c(c5c6ccccc6n(c5c32)C1)C(=O)NC4` (stereo not shown) [Cpd 165, 12,13-{2-[(3-morpholin-4-yl-prop-1-yl)carbamoyloxymethyl]-propan-1,3-yl}-6,7,12,13-tetrahydro-5-oxo-5H-indolo[2,3-a]pyrrolo[3,4-c]carbazole], the figure is 278 nM; as for `O=C(NC1CCNCC1)OCC1(O)Cn2c3ccccc3c3c4c(c5c6ccccc6n(c5c32)C1)C(=O)NC4` (stereo not shown) [Cpd 178, 12,13-[2-hydroxy-2-(piperidin-4-yl-carbamoyloxymethyl)-propan-1,3-yl]-6,7,12,13-tetrahydro-5-oxo-5H-indolo[2,3-a]pyrrolo[3,4-c]carbazole], 154 nM.
